Among the data in ChEMBL document CHEMBL1128168, “An efficient synthesis of the benzhydrylpiperazine delta opioid agonist (+)-BW373U86” (Bioorg Med Chem Lett, 1995) are Activity values, retold here.

The target of the assay is Delta-type opioid receptor (Homo sapiens) (UniProt P41143). Briefly: Compound was tested for delta-opioid receptor agonistic activity;A - found to be highly selective. It is filed as functional. The settings on record: filed as agonist.

Structures are written as SMILES.

Sequence of Delta-type opioid receptor (Homo sapiens) (P41143 whole entry): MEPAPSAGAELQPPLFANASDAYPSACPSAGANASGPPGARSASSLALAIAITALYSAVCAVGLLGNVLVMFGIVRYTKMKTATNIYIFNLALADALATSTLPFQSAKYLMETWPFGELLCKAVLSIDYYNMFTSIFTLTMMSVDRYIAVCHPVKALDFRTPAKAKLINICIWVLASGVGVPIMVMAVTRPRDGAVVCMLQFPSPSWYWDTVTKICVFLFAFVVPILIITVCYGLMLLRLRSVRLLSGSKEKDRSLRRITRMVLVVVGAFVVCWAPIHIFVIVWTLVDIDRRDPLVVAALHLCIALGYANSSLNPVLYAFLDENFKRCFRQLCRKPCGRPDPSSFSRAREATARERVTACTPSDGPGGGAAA

`C=CCN1C[C@H](C)N([C@H](c2ccc(C(=O)N(CC)CC)cc2)c2cccc(O)c2)C[C@H]1C`: the Activity result was “Agonist”.
